Test results published in patent US20200165291A1, “NEUROACTIVE STEROIDS, COMPOSITIONS, AND USES THEREOF” (Sage Therapeutics, Inc., priority 2014, published 2020).
pIC50: −log10 of the molar value.

Assays:
[1] = target: [35S]-TBPS binding, rat brain cortical membranes (GABA receptor complex); assay: [35S]-TBPS binding (steroid inhibition of TBPS binding); conditions: in the presence of 5 μM GABA, read-out: 35S-TBPS Radioligand Displacement
Method: [35S]-t-Butylbicyclophosphorothionate (TBPS) binding assays using rat brain cortical membranes in the presence of 5 μM GABA has been described (Gee et al, J. Pharmacol. Exp. Ther. 1987, 241, 346-353; Hawkinson et al, Mol. Pharmacol. 1994, 46, 977-985; Lewin, A. H et al., Mol. Pharmacol. 1989, 35, 189-194).
Briefly, cortices are rapidly removed following decapitation of carbon dioxide-anesthetized Sprague-Dawley rats (200-250 g). The cortices are homogenized in 10 volumes of ice-cold 0.32 M sucrose using a glass/teflon homogenizer and centrifuged at 1500×g for 10 min at 4° C. The resultant supernatants are centrifuged at 10,000×g for 20 min at 4° C. to obtain the P2 pellets. The P2 pellets are resuspended in 200 mM NaCl/50 mM Na-K phosphate pH 7.4 buffer and centrifuged at 10,000×g for 10 min at 4° C. This washing procedure is repeated twice and the pellets are resuspended in 10 volumes of buffer. Aliquots (100 μL) of the membrane suspensions are incubated with 3 nM [^35S]-TBPS and 5 μL aliquots of test drug dissolved in dimethyl sulfoxide (DMSO) (final 0.5%) in the presence of 5 μM GABA. The incubation is brought to a final volume of 1.0 mL with buffer. Nonspecific binding is determined in the presence of 2 μM unlabeled TBPS and ranged from 15 to 25%. Following a 90 min incubation at room temp, the assays are terminated by filtration through glass fiber filters (Schleicher and Schuell No. 32) using a cell harvester (Brandel) and rinsed three times with ice-cold buffer. Filter bound radioactivity is measured by liquid scintillation spectrometry. Non-linear curve fitting of the overall data for each drug averaged for each concentration is done using Prism (GraphPad). […] The concentration of test compound producing 50% inhibition (IC50) of specific binding and the maximal extent of inhibition (Imax) are determined for the individual experiments with the same model used for the overall data and then the means±SEM.s of the individual experiments are calculated.
Various compounds are or can be screened to determine their potential as modulators of [^35S]-TBPS binding in vitro. These assays are or can be performed in accordance with the above discussed procedures.

[2] = target: T1, recombinant α1β2γ2 GABAA receptors (Homo sapiens, UniProt P14867+P47870); assay: Patch clamp electrophysiology, QPatch, LTK cells; assay type: cell-based; conditions: 10 μM test article, GABA EC20 = 2 μM, read-out: GABA (α1β2γ2) Qpatch in Ltk, % efficacy at 10 μM
T1 construct: expressed in transfected cells

[3] = target: T2, recombinant α4β3δ GABAA receptors (Homo sapiens, UniProt P28472+P48169); assay: Patch clamp electrophysiology, manual patch, CHO cells; assay type: cell-based; conditions: 10 μM test article, GABA EC20 = 2 μM, read-out: GABA (α4β3δ) Manual patch in CHO, % efficacy at 10 μM
T2 construct: expressed in transfected cells; host or cells: CHO cells (transient transfection, Lipofectamine)

[4] = test system: male Sprague Dawley rats; assay: Loss of righting reflex in rats; assay type: in vivo; conditions: Rat IV, 5 mpk
Method: Loss of Righting Reflex in Rats
The plasma pharmacokinetics and a qualitative assessment of sedation were obtained in male Sprague Dawley rats according to the following procedure. Rats were dosed by intravenous bolus dose (60 seconds) via the foot dorsal vein at doses ranging from 5 to 15 mg/kg in an appropriate vehicle. In order to assess sedation, rats were gently restrained by hand to a lateral position for dose administration. […] If the animal was unable to return to an upright position, the time was recorded as the onset of loss of righting reflex (LRR). […] Sluggish or incomplete righting twice consecutively within a 30 second interval qualifies as a loss of righting reflex. After onset of LRR, animals were assessed every 5 minutes in the same manner. Recovery of righting reflex is defined as the ability of a rat to right itself completely within 20 seconds of being placed in dorsal recumbency. The duration of LRR is defined as the time interval between LRR and the return of righting reflex.

[5] = test system: PTZ-treated male CD-1 mice; assay: Acute PTZ (pentylenetetrazol-induced seizure) method in mice; assay type: in vivo; conditions: Mus musculus, PO (oral administration), latency to tonic seizures, read-out: Anticonvulsive Effect Dose (minimal effective anticonvulsant dose)
Method: The anticonvulsant effect of test compounds were assessed in the pentylenetetazol-induced seizure assay in mice similar to methods described in Giardina & Gasior (2009) Curr Protoc Pharmacol., Chapter 5. Male CD-1 mice were housed in groups of five under controlled conditions (temperature of 22±2° C. and 12:12 light-dark cycle, lights on at 8:00 am) and water and food were available ad libitum. The mice were housed for 1 week prior to behavioral testing, at which time they weighed 25-35 g. Pentylenetetrazol (PTZ, Sigma) was dissolved in sterile 0.9% saline at a concentration of 12 mg/mL concentration for subcutaneous administration. Test compounds were formulated and administered via oral gavage or intraperitoneal injection at a predetermined time-point (typically 30 or 60 minutes) prior to PTZ injection. All solutions were made fresh and were given in a volume of 10 ml/kg body weight.
Mice were acclimated to the test room for at least 30 min before compound administration. Mice were randomized into at least four test groups (vehicle and at least three doses of the test compound) with 10 mice per group. […] Following the drug pretreatment time the mice were injected s.c. with PTZ (120 mg/kg). Immediately following the PTZ injection, mice were individually placed into observation chambers (25×15×15 cm) and a three-channel timer was started. Each mouse was continuously observed for 30 min and the following behaviors were recorded by observers blinded to the treatments: 1) latency to clonic convulsions that persist for 3 sec and followed by an absence of righting reflex 2) latency to tonic convulsions, characterized by the rigid extension of all four limbs that exceeded a 90 degree angle with the body 3) latency to death 4) number of clonic and tonic convulsions. Data are presented as mean±S.E.M and one-way analysis of variance with Dunnett's or Bonferroni's post-hoc test was used to detect significant differences in latency and number between the vehicle and dose group. p values<0.05 were regarded as statistically significant.

T2 sequence (P48169 36-554): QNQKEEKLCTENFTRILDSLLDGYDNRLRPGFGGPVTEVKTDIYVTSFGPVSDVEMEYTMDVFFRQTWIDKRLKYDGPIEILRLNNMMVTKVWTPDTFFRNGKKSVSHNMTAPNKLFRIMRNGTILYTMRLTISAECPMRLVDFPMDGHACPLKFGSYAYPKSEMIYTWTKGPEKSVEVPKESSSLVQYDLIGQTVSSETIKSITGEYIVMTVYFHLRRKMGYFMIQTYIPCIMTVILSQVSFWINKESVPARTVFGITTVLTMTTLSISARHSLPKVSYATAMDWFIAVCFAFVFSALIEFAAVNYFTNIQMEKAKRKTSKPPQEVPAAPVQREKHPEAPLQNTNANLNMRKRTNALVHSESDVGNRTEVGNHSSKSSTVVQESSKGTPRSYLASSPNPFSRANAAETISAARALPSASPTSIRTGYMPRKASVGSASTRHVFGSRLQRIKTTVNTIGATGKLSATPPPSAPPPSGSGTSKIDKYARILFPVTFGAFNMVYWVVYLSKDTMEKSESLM
T2 sequence (P28472 26-473): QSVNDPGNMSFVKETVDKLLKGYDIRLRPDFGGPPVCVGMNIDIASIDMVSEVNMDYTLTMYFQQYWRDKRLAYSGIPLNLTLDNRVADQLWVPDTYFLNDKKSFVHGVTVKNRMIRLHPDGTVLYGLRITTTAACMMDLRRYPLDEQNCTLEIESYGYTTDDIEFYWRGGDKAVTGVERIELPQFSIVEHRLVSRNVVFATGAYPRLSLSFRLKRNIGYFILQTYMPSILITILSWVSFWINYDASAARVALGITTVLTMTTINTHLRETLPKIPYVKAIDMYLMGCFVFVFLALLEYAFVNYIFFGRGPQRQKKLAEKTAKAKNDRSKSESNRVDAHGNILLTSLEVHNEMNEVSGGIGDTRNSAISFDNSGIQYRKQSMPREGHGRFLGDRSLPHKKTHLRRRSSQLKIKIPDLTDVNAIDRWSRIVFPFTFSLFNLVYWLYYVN
T2 sequence (O14764 17-452 partner limits assumed): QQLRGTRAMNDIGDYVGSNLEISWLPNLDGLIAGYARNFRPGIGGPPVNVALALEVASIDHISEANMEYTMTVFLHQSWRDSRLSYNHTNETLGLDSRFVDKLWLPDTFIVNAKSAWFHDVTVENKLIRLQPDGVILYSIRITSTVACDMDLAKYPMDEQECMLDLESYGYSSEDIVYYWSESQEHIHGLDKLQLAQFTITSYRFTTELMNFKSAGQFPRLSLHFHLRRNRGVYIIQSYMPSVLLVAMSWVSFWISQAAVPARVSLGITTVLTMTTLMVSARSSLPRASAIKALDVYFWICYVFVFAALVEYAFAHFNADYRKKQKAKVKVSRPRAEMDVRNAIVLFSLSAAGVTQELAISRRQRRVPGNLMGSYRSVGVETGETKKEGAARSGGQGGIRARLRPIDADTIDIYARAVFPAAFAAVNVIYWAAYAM
T1 sequence (P14867 28-456): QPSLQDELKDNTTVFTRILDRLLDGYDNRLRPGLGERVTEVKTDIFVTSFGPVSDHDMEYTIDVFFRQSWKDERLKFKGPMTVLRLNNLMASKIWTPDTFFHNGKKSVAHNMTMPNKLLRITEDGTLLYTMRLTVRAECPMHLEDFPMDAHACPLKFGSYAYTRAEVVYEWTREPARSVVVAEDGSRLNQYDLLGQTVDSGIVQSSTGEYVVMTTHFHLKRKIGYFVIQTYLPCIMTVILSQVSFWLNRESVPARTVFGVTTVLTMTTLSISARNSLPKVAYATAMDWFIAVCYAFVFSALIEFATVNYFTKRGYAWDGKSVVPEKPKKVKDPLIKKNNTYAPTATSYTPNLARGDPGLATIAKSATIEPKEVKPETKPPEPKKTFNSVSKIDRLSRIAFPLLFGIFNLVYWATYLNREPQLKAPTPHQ
T1 sequence (P47870 25-512 limits assumed): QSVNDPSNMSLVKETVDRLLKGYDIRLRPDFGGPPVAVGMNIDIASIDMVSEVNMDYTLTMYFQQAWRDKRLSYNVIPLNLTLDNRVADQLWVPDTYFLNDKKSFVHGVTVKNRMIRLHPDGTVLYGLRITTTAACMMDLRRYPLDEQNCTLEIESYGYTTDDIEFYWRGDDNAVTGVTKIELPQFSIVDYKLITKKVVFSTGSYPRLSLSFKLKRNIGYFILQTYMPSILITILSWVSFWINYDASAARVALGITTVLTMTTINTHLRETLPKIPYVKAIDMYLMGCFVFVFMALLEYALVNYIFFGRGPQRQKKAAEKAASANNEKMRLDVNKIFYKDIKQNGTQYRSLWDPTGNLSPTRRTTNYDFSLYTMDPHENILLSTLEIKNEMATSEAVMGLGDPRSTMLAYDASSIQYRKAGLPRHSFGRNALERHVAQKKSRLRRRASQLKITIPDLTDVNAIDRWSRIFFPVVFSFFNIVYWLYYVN
T1 sequence (P18507 40-475 partner): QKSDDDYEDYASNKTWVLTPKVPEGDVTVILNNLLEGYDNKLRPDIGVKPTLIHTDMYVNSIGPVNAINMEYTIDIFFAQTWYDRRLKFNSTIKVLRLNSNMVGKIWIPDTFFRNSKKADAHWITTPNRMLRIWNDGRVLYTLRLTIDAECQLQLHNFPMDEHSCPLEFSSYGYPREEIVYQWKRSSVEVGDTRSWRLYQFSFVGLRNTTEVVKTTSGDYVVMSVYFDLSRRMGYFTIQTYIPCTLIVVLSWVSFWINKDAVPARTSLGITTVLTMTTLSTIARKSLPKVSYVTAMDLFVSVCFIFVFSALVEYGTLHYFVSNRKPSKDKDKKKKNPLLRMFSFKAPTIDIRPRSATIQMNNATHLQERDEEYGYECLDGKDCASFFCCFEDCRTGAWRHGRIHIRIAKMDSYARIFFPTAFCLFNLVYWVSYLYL

| SMILES | pIC50 [1] | Emax at 10 µM [2] | Emax at 10 µM [3] | Duration of Rat LRR [4] | minimal effective dose [5] |
| --- | --- | --- | --- | --- | --- |
| Cc1cnn(CC(=O)[C@H]2CC[C@H]3[C@@H]4CC[C@@H]5C[C@](C)(O)CC[C@@H]5[C@H]4CC[C@]23C)n1 [SA-3] | 7.30 to 9.00 | 100 to 500% | > 500% | B (B > 20 min) | – |
| Cc1nnn(CC(=O)[C@H]2CC[C@H]3[C@@H]4CC[C@@H]5C[C@](C)(O)CC[C@@H]5[C@H]4CC[C@]23C)n1 [SA-7] | 7.30 to 9.00 | > 500% | > 500% | B (B > 20 min) | ≤ 1 mg/kg |
| Cc1nnn(CC(=O)[C@H]2CC[C@H]3[C@@H]4CC[C@H]5C[C@](C)(O)CC[C@@H]5[C@H]4CC[C@]23C)n1 [SB-5] | – | 100 to 500% | > 500% | B (B > 20 min) | ≤ 1 mg/kg |
| CC[C@@]1(O)CC[C@H]2[C@H](CC[C@@H]3[C@@H]2CC[C@]2(C)[C@@H](C(=O)Cn4nccn4)CC[C@@H]32)C1 [SE-4] | 7.00 to 7.30 | 100 to 500% | > 500% | A (A ≤ 20 min) | – |
| Cc1nnn(CC(=O)[C@H]2CC[C@H]3[C@@H]4CC[C@@H]5C[C@@](O)(CF)CC[C@@H]5[C@H]4CC[C@]23C)n1 [SF-3] | – | 100 to 500% | 100 to 500% | A (A ≤ 20 min) | ≤ 1 mg/kg |
| COC[C@@]1(O)CC[C@H]2[C@@H](CC[C@@H]3[C@@H]2CC[C@]2(C)[C@@H](C(=O)Cn4nnc(C)n4)CC[C@@H]32)C1 [SI-4] | – | 100 to 500% | 100 to 500% | B (B > 20 min) | ≤ 1 mg/kg |
| C[C@@]1(O)CC[C@@H]2[C@H]3CC[C@]4(C)[C@@H](C(=O)Cn5nccn5)CC[C@H]4[C@@H]3C[C@@H](F)[C@H]2C1 [SV-2] | 7.00 to 7.30 | 100 to 500% | 100 to 500% | B (B > 20 min) | ≤ 1 mg/kg |
| C[C@@]1(O)CC[C@@H]2[C@H]3CC[C@]4(C)[C@@H](C(=O)Cn5ncnn5)CC[C@H]4[C@@H]3C[C@@H](F)[C@H]2C1 [SV-3] | – | 100 to 500% | > 500% | A (A ≤ 20 min) | – |
| Cc1nnn(CC(=O)[C@H]2CC[C@H]3[C@@H]4C[C@@H](F)[C@H]5C[C@](C)(O)CC[C@@H]5[C@H]4CC[C@]23C)n1 [SV-5] | – | 100 to 500% | 100 to 500% | B (B > 20 min) | ≤ 1 mg/kg |
